From ChEMBL document CHEMBL5634130, “Exploring the structural-activity relationship of hexahydropyrazino[1,2-d]pyrido[3,2-b][1,4]oxazine derivatives as potent and orally-bioavailable PARP7 inhibitors” (Eur J Med Chem, 2023)
≈ marks a conversion by molar mass, not a printed value.

Columns and labels:
[1] = Clearance in fasted Beagle dog at 2 mg/kg, iv measured for 24 hrs by LC-MS analysis; type: ADME, organism-based, Canis lupus familiaris; settings: in vivo
[2] = Oral bioavailability in fasted ICR mouse at 10 mg/kg measured for 24 hrs by LC-MS analysis; type: ADME, organism-based; settings: in vivo
[3] = Apparent permeability across apical to basolateral side in MDCKII-MDR1 cells incubated for 2 hrs by LC-MS analysis; type: ADME, cell-based, Canis lupus familiaris; settings: dog, MDCK-MDR1
[4] = Metabolic stability in human liver microsomes assessed as intrinsic clearance preincubated for 5 mins followed by NADPH addition measured for 1 hr by LC-MS analysis; type: ADME, Microsome; settings: time 65 min, read-out: CLH
[5] = Metabolic stability in mouse liver microsomes assessed as intrinsic clearance preincubated for 5 mins followed by NADPH addition measured for 1 hr by LC-MS analysis; type: ADME, Microsome; settings: time 65 min, read-out: CLH
[6] = Cmax in fasted ICR mouse at 10 mg/kg, po measured for 24 hrs by LC-MS analysis; type: ADME, organism-based; settings: in vivo
[7] = Cmax in fasted Beagle dog at 10 mg/kg, po measured for 24 hrs by LC-MS analysis; type: ADME, organism-based, Canis lupus familiaris; settings: in vivo
[8] = Kinetic solubility of compound at pH 2; type: physicochemical; settings: buffer, read-out: Kinetic_solubility
[9] = Plasma protein binding in monkey at 2 uM incubated for 1 hr by LC/MS analysis; type: ADME, cell-free, Macaca mulatta; settings: rhesus monkey, read-out: PPB (converted)
Cytochrome P450 3A4 = Cytochrome P450 3A4 (Homo sapiens, UniProt P08684); experiment: Inhibition of CYP3A4 in human liver microsomes using midazolam as substrate preincubated for 10 mins followed by substrate addition measured for 30 mins by LC-MS analysis; type: ADME, Microsome
[10] = Kinetic solubility of compound at pH 7.4; type: physicochemical; settings: buffer, read-out: Kinetic_solubility
NCI-H1373 [11] = experiment: Antiproliferative activity against human NCI-H1373 cells assessed as inhibition of cell viability incubated for 4 days by luminescence based assay; settings: NCI-H1373, 96 h
[12] = Half life in fasted Beagle dog at 2 mg/kg, iv measured for 24 hrs by LC-MS analysis; type: ADME, organism-based, Canis lupus familiaris; settings: in vivo
[13] = AUC in fasted ICR mouse at 2 mg/kg, iv measured for 24 hrs by LC-MS analysis; type: ADME, organism-based; settings: in vivo
[14] = biological target: T1, Protein mono-ADP-ribosyltransferase PARP12 (Homo sapiens, UniProt Q9H0J9); experiment: Inhibition of PARP12 (unknown origin)
T1 sequence (Q9H0J9 whole entry): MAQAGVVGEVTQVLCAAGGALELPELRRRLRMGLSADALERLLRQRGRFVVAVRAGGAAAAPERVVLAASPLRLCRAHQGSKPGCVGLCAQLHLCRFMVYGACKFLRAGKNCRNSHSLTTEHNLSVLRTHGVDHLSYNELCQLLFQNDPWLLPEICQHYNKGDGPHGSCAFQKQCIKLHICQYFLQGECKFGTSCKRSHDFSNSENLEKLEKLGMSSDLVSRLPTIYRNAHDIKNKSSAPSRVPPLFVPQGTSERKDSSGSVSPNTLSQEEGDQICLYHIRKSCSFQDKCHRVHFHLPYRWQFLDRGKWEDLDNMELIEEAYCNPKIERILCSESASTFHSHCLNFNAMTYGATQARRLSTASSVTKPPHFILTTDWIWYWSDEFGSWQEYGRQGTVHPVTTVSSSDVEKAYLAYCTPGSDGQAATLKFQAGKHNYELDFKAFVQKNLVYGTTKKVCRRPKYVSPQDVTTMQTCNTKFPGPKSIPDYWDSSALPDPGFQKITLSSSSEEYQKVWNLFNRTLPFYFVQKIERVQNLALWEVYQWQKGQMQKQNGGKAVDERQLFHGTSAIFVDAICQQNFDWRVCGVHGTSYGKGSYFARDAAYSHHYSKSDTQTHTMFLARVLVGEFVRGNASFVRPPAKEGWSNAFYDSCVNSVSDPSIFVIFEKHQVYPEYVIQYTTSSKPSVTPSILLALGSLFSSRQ

[15] = Plasma protein binding in human at 2 uM incubated for 1 hr by LC/MS analysis; type: ADME, cell-free; settings: read-out: PPB (converted)
[16] = Toxicity in […] SCID mouse model xenografted with human NCI-H1373 cells assessed as animal death at 30 mg/kg, po measured for 21 days; type: organism-based; settings: in vivo, 504 h, time 21 day
[17] = Efflux ratio of apparent permeability across basolateral to apical side over apical to basolateral side in MDCKII-MDR1 cells incubated for 2 hrs by LC-MS analysis; type: ADME, cell-based, Canis lupus familiaris; settings: dog, MDCK-MDR1
[18] = Metabolic stability in rat liver microsomes assessed as intrinsic clearance preincubated for 5 mins followed by NADPH addition measured for 1 hr by LC-MS analysis; type: ADME, Microsome; settings: time 65 min, read-out: CLH
[19] = biological target: T2, Protein mono-ADP-ribosyltransferase TIPARP (Homo sapiens, UniProt Q7Z3E1); experiment: Inhibition of PARP7 (unknown origin) using histone as substrate incubated for 1 hr by chemiluminescence assay
T2 sequence (Q7Z3E1 whole entry): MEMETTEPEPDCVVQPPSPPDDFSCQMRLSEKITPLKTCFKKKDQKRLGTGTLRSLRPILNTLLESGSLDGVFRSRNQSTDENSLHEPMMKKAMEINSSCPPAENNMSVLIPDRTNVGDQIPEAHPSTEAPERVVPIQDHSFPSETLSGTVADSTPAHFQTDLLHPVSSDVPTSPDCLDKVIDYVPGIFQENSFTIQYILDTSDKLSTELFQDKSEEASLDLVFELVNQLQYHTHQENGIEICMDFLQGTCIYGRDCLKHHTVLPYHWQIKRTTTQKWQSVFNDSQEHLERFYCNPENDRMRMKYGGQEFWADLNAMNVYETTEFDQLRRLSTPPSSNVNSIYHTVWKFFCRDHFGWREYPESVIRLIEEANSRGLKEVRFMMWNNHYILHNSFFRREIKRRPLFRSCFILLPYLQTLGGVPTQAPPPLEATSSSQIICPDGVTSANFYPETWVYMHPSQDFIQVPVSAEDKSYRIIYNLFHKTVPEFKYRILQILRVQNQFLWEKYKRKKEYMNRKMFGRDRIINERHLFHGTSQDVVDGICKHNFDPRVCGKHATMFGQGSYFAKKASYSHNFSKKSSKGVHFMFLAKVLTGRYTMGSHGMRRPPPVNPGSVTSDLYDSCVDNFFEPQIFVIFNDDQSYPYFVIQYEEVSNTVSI

[20] = biological target: Protein mono-ADP-ribosyltransferase PARP14 (Homo sapiens, UniProt Q460N5); experiment: Inhibition of PARP14 (unknown origin)
[21] = Metabolic stability in dog liver microsomes assessed as intrinsic clearance preincubated for 5 mins followed by NADPH addition measured for 1 hr by LC-MS analysis; type: ADME, Canis lupus familiaris, Microsome; settings: time 65 min, read-out: CLH
Cytochrome P450 2C19 = Cytochrome P450 2C19 (Homo sapiens, UniProt P33261); experiment: Inhibition of CYP2C19 in human liver microsomes using mephenytoin as substrate preincubated for 10 mins followed by substrate addition measured for 30 mins by LC-MS analysis; type: ADME, Microsome
NCI-H1373 [22] = experiment: Antitumor activity against human NCI-H1373 cells xenografted in […] SCID mouse model assessed as tumor growth inhibition at 30 mg/kg, po administered everyday measured after 21 days relative to control; type: functional; settings: NCI-H1373, 504 h, time 21 day, read-out: TGI
[23] = AUC in fasted ICR mouse at 10 mg/kg, po measured for 24 hrs by LC-MS analysis; type: ADME, organism-based; settings: in vivo

Chain of Cytochrome P450 3A4 (P08684 whole entry): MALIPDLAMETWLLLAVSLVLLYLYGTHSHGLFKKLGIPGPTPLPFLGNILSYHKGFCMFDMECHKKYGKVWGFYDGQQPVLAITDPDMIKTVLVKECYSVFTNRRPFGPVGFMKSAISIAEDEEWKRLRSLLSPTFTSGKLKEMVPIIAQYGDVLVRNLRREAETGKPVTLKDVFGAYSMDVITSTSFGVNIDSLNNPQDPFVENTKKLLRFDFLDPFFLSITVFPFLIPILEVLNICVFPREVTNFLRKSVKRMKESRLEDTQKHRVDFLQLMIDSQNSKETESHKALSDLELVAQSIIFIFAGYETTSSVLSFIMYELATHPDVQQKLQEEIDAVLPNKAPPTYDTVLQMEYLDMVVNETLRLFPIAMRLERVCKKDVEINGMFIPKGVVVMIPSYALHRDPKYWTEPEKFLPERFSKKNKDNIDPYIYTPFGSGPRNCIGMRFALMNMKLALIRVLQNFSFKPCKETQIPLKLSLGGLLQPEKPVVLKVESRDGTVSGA
Chain of Protein mono-ADP-ribosyltransferase PARP14 (Q460N5 whole entry): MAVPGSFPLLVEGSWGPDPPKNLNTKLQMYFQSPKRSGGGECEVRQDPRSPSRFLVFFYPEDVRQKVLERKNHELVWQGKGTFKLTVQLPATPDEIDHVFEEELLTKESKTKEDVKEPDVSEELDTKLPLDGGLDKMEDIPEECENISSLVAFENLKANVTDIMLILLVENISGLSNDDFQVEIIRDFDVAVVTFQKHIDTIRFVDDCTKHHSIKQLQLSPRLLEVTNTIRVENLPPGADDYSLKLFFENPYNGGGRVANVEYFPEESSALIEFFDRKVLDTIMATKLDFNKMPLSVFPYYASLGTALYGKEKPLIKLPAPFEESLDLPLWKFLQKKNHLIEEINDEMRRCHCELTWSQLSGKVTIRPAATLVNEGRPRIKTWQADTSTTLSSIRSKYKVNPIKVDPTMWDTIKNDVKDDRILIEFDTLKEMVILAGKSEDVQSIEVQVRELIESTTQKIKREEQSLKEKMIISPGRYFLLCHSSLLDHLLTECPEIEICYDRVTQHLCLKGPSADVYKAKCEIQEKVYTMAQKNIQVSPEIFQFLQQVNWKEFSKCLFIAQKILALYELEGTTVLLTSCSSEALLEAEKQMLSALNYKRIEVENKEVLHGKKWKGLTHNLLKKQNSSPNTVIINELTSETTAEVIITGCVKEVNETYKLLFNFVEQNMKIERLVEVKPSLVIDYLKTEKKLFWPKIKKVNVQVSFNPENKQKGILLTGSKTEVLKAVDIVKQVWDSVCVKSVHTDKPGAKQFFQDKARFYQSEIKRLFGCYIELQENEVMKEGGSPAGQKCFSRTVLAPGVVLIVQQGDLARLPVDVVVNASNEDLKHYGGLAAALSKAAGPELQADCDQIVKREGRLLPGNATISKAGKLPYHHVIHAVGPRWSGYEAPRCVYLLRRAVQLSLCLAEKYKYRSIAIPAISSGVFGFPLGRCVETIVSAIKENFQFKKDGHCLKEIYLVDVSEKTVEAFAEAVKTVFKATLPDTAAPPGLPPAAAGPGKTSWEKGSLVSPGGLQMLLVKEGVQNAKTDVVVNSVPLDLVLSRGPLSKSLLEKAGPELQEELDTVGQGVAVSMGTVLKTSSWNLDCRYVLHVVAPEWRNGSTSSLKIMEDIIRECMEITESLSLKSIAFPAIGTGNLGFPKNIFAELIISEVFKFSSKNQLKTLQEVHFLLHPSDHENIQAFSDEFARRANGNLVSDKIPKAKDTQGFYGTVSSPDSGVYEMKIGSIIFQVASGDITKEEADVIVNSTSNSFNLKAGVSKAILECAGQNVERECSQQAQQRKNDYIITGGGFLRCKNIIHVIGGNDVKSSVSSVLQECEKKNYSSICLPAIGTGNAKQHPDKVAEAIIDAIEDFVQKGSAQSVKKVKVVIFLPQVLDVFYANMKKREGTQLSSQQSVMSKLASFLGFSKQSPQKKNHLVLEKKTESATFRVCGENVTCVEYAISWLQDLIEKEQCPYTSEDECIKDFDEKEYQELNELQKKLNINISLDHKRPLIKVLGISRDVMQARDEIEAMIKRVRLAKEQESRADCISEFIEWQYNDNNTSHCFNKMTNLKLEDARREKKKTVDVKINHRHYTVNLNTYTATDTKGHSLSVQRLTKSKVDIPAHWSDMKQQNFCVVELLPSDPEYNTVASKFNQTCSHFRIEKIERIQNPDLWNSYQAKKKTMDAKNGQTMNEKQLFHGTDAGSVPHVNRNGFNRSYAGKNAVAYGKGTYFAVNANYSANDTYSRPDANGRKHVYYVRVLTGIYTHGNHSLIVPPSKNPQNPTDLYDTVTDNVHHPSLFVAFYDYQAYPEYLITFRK
Chain of Cytochrome P450 2C19 (P33261 whole entry): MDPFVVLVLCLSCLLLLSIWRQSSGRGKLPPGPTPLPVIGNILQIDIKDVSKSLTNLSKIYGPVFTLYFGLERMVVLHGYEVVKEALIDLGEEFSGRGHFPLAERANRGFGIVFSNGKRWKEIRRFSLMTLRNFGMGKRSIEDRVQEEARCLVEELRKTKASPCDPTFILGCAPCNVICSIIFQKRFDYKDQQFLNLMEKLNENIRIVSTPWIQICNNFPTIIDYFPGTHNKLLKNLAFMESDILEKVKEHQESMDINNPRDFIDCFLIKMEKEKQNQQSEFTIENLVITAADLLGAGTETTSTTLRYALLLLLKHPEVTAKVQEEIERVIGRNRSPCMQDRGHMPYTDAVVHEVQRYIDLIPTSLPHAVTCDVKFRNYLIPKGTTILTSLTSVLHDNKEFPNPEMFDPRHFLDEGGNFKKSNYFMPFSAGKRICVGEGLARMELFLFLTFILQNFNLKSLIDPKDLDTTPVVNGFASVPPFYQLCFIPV

O=C(CCOC[C@@H]1CCN1c1cn[nH]c(=O)c1C(F)(F)F)N1CCN2c3ncc(C(F)(F)F)cc3OC[C@@H]2C1 showed a clearance [1] of 7.5 mL/min/kg, a bioavailability [2] of 33.9% and a Papp A→B at 2 h [3] of 0.202 ×10⁻⁶ cm/s. For the same compound, the CLint scaled [4] was 19.8 mL/min/kg, the CLint scaled [5] was 141 mL/min/kg and the Cmax [6] was 752 ng/mL. The Cmax [7] was 2300 ng/mL, the solubility kinetic [8] was 166 µM (≈ 93.4 µg/mL) and the fraction unbound at 1 h, 2 µM [9] was 0.004. For the same compound, the IC50 (Cytochrome P450 3A4) was > 30000 nM, the solubility kinetic [10] was 158 µM (≈ 88.9 µg/mL) and the IC50 (NCI-H1373 [11]) was 4.1 nM. For the same compound, the half-life [12] was 1.3 h, the AUC at 24 h [13] was 680 ng·h/mL and the IC50 [14] was 360 nM. The fraction unbound at 1 h, 2 µM [15] was 0.002, the Activity [16] was “Non-Toxic” and the efflux ratio at 2 h [17] was 16.3. For the same compound, the CLint scaled [18] was 88.8 mL/min/kg, the IC50 [19] was 0.56 nM and the IC50 [20] was > 1000 nM. It also gave a CLint scaled [21] of 9.1 mL/min/kg, an IC50 (Cytochrome P450 2C19) of 7550 nM and an inhibition in vivo at 30 mg/kg (NCI-H1373 [22]) of 75.2%. For the same compound, the AUC [23] was 1146 ng·h/mL.
